In patent US7709498B2, “Quinoline derivatives as antibacterial agents” (Janssen Pharmaceutica N.V., priority 2005, dated 2010):
Values after ≈ are worked out from the molar mass of the structure shown.

Key:
Assay type in all cases: cell-based
[1] = test system: Enterococcus faecalis (ATCC29212); assay: Microtitre plate assay, IC90 determination, EFA 29212; settings: 90% inhibitory concentration for bacterial growth, 37° C., resazurin fluorescence; for IC90: Enterococcus faecalis, ATCC29212, 24 h, read-out: IC90 (μg/ml) EFA 29212; for IC90 (μg/ml) EFA 29212: 24 hours
Description: (§1) The bacteria used in this study were grown overnight in flasks containing 100 ml Mueller-Hinton Broth (Becton Dickinson—cat. no. 275730) in sterile de-ionized water, with shaking, at 37° C. Stocks (0.5 ml/tube) were stored at −70° C. until use. Bacteria titrations were performed in microtiter plates to detect the TCID50, in which the TCID50 represents the dilution that gives rise to bacterial growth in 50% of inoculated cultures.
(§2) In general, an inoculum level of approximately 100 TCID50 was used for susceptibility testing.
(§3) Flat-bottom, sterile 96-well plastic microtiter plates were filled with 180 μl of sterile deionized water, supplemented with 0.25% BSA. Subsequently, stock solutions (7.8× final test concentration) of compounds were added in 45 μl volumes in column 2. Serial five-fold dilutions (45 μl in 180 μl) were made directly in the microtiter plates from column 2 to reach column 11. Untreated control samples with (column 1) and without (column 12) inoculum were included in each microtiter plate. Depending on the bacteria type, approximately 10 to 60 CFU per well of bacteria inoculum (100 TCID50), in a volume of 100 μl in 2.8× Mueller-Hinton broth medium, was added to the rows A to H, except column 12. The same volume of broth medium without inoculum was added to column 12 in row A to H. The cultures were incubated at 37° C. for 24 hours under a normal atmosphere (incubator with open air valve and continuous ventilation). At the end of incubation, one day after inoculation, the bacterial growth was quantitated fluorometrically. Therefore resazurin (0.6 mg/ml) was added in a volume of 20 μl to all wells 3 hours after inoculation, and the plates were re-incubated overnight. A change in colour from blue to pink indicated the growth of bacteria. The fluorescence was read in a computer-controlled fluorometer (Cytofluor Biosearch) at an excitation wavelength of 530 nm and an emission wavelength of 590 nm. The % growth inhibition achieved by the compounds was calculated according to standard methods. The IC90 (expressed in μg/ml) was defined as the 90% inhibitory concentration for bacterial growth.
(§4) BSU 3639 means Bacillus subtilis (ATCC43639); ECO 25922 means Escherichia coli (ATCC25922); EFA 14506 means Enterococcus faecalis (ATCC14506); EFA 29212 means Enterococcus faecalis (ATCC29212); LMO 49594 means Listeria monocytogenes (ATCC49594); PAE 27853 means Pseudomonas aeruginosa (ATCC27853); SMU 33402 means Streptococcus mutans (ATCC33402); SPN 6305 means Streptococcus pneumoniae (ATCC6305); SPY 8668 means Streptococcus pyogens (ATCC8668); STA 43300 means Staphylococcus aureus (ATCC43300); STA 25923 means Staphylococcus aureus (ATCC25923); STA 29213 means Staphylococcus aureus (ATCC29213); STA RMETH means methicilline resistant Staphylococcus aureus (MRSA) (a clinical isolate from the University of Antwerp). ATCC means American type tissue culture.

[2] = test system: Listeria monocytogenes (ATCC49594); assay: Microtitre plate assay, IC90 determination, LMO 49594; settings: 90% inhibitory concentration for bacterial growth, 37° C., resazurin fluorescence; for IC90: Listeria monocytogenes, ATCC49594, 24 h, read-out: IC90 (μg/ml) LMO 49594; for IC90 (μg/ml) LMO 49594: 24 hours
Description: as §1, §2, §3, §4

[3] = test system: Pseudomonas aeruginosa (ATCC27853); assay: Microtitre plate assay, IC90 determination, PAE 27853; settings: 90% inhibitory concentration for bacterial growth, 37° C., resazurin fluorescence; for IC90: Pseudomonas aeruginosa, ATCC27853, 24 h, read-out: IC90 (μg/ml) PAE 27853
Description: as §1, §2, §3, §4

[4] = test system: Streptococcus mutans (ATCC33402); assay: Microtitre plate assay, IC90 determination, SMU 33402; settings: 90% inhibitory concentration for bacterial growth, 37° C., resazurin fluorescence; for IC90 (μg/ml) SMU 33402: 24 hours; for IC90: Streptococcus mutans, ATCC33402, 24 h, read-out: IC90 (μg/ml) SMU 33402
Description: as §1, §2, §3, §4

[5] = test system: Streptococcus pneumoniae (ATCC6305); assay: Microtitre plate assay, IC90 determination, SPN 6305; settings: 90% inhibitory concentration for bacterial growth, 37° C., resazurin fluorescence; for IC90: Streptococcus pneumoniae, ATCC6305, 24 h, read-out: IC90 (μg/ml) SPN 6305; for IC90 (μg/ml) SPN 6305: 24 hours
Description: as §1, §2, §3, §4

[6] = test system: Streptococcus pyogens (ATCC8668); assay: Microtitre plate assay, IC90 determination, SPY 8668; settings: 90% inhibitory concentration for bacterial growth, 37° C., resazurin fluorescence; for IC90: Streptococcus, ATCC8668, 24 h, read-out: IC90 (μg/ml) SPY 8668; for IC90 (μg/ml) SPY 8668: 24 hours
Description: as §1, §2, §3, §4

[7] = test system: Bacillus subtilis (ATCC43639); assay: Microtitre plate assay, IC90 determination, BSU 43639; settings: 90% inhibitory concentration for bacterial growth, 37° C., resazurin fluorescence; for IC90: Bacillus subtilis, ATCC43639, 24 h, read-out: IC90 (μg/ml) BSU 43639; for IC90 (μg/ml) BSU 43639: 24 hours
Description: as §1, §2, §3, §4

[8] = test system: Staphylococcus aureus (ATCC43300); assay: Microtitre plate assay, IC90 determination, STA 43300; settings: 90% inhibitory concentration for bacterial growth, 37° C., resazurin fluorescence; for IC90: Staphylococcus aureus, ATCC43300, 24 h, read-out: IC90 (μg/ml) STA 43300
Description: as §1, §2, §3, §4

[9] = test system: Staphylococcus aureus (ATCC25923); assay: Microtitre plate assay, IC90 determination, STA 25923; settings: 90% inhibitory concentration for bacterial growth, 37° C., resazurin fluorescence; for IC90: Staphylococcus aureus, ATCC25923, 24 h, read-out: IC90 (μg/ml) STA 25923
Description: as §1, §2, §3, §4

Row | IC90 [1] | IC90 [2] | IC90 [3] | IC90 [7] | IC90 (μg/ml) SPN 6305 [5] | IC90 [8] | IC90 [4] | IC90 (μg/ml) EFA 29212 [1] | IC90 (μg/ml) LMO 49594 [2] | SMILES | other results
1 | 11.6 µg/mL (≈ 22.3 µM) | 11.6 µg/mL (≈ 22.3 µM) | 11.6 µg/mL (≈ 22.3 µM) |  |  |  |  |  |  | CCOc1nc2ccc(Br)cc2cc1C(c1ccccc1)C(O)(CCN(C)C)c1ccccc1 (stereo not drawn) [Compound 6] | IC90 (μg/ml) SMU 33402 [4]: 4.6 µg/mL (≈ 8.85 µM); IC90 [5]: 13 µg/mL (≈ 25 µM); IC90 [6]: 4.6 µg/mL (≈ 8.85 µM)
2 |  |  |  | 11.4 µg/mL (≈ 19.9 µM) |  |  |  |  |  | COc1nc2ccc(-c3ccc(CO)o3)cc2cc1C(c1ccccc1)C(O)(CCN(C)C)c1cccc2ccccc12 (stereo not drawn) [Compound 212] | 
3 | 11.3 µg/mL (≈ 22.4 µM) | 7.1 µg/mL (≈ 14 µM) | 10.1 µg/mL (≈ 20 µM) | 12.7 µg/mL (≈ 25.1 µM) | 5.7 µg/mL (≈ 11.3 µM) | 12.7 µg/mL (≈ 25.1 µM) |  |  |  | COc1nc2ccc(Br)cc2cc1C(c1ccccc1)C(O)(CCN(C)C)c1ccccc1 (single isomer, unassigned) [E] | IC90 (μg/ml) SMU 33402 [4]: 10.1 µg/mL (≈ 20 µM); IC90 (μg/ml) SPY 8668 [6]: 5.1 µg/mL (≈ 10.1 µM)
4 | 11.5 µg/mL (≈ 22.5 µM) | 11.5 µg/mL (≈ 22.5 µM) |  |  | 12.8 µg/mL (≈ 25 µM) | 12.8 µg/mL (≈ 25 µM) | 11.5 µg/mL (≈ 22.5 µM) |  |  | COc1nc2ccc(Br)cc2cc1C(c1ccccc1)C(O)(CCN(C)C)c1ccsc1 (stereo not drawn) [Compound 25] | IC90 [6]: 4.1 µg/mL (≈ 8.02 µM)
5 |  |  | 10.3 µg/mL (≈ 22.3 µM) | 10.3 µg/mL (≈ 22.3 µM) |  | 11.6 µg/mL (≈ 25.2 µM) | 10.3 µg/mL (≈ 22.3 µM) | 4.6 µg/mL (≈ 9.98 µM) | 4.1 µg/mL (≈ 8.89 µM) | COc1nc2ccc(Cl)cc2cc1C(c1ccccc1)C(O)(CCN(C)C)c1ccccc1 (stereo not drawn) [Compound 31] | IC90 [5]: 5.2 µg/mL (≈ 11.3 µM); IC90 (μg/ml) SPY 8668 [6]: 1.8 µg/mL (≈ 3.9 µM)
6 |  |  | 13.6 µg/mL (≈ 25.2 µM) |  |  |  |  |  |  | COc1nc2ccc(Br)cc2cc1C(c1ccccc1)C(O)(CCN(C)C)c1ccc(Cl)cc1 (stereo not drawn) [Compound 16] | 
7 |  |  |  | 7.6 µg/mL (≈ 15.9 µM) |  |  |  |  |  | COc1nc2ccc(Br)cc2cc1C(c1ccccc1)C(O)(CCN)c1ccccc1 (stereo not drawn) [Compound 44] | IC90 [9]: 7.6 µg/mL (≈ 15.9 µM)
8 | 4.5 µg/mL (≈ 8.95 µM) | 4.5 µg/mL (≈ 8.95 µM) | 2 µg/mL (≈ 3.98 µM) | 10 µg/mL (≈ 19.9 µM) | 5.6 µg/mL (≈ 11.1 µM) | 11.3 µg/mL (≈ 22.5 µM) | 11.3 µg/mL (≈ 22.5 µM) |  |  | COc1nc2ccc(-c3ccccc3)cc2cc1C(c1ccccc1)C(O)(CCN(C)C)c1ccccc1 (stereo not drawn) [Compound 26] | IC90 [6]: 2.5 µg/mL (≈ 4.97 µM); IC90 [9]: 8.9 µg/mL (≈ 17.7 µM)
9 |  |  |  |  | 5.9 µg/mL (≈ 11.3 µM) |  | 11.7 µg/mL (≈ 22.4 µM) | 10.4 µg/mL (≈ 19.9 µM) | 4.7 µg/mL (≈ 8.98 µM) | COc1nc2ccc(Br)cc2cc1C(c1ccccc1)C(O)(CCN(C)C)c1cccc(F)c1 (stereo not drawn) [Compound 39] | IC90 (μg/ml) PAE 27853 ([3]; 24 hours): 10.4 µg/mL (≈ 19.9 µM); IC90 (μg/ml) SPY 8668 [6]: 1.9 µg/mL (≈ 3.63 µM); IC90 (μg/ml) STA 43300 ([8]; 24 hours): 13.1 µg/mL (≈ 25 µM); IC90 (μg/ml) STA 25923 ([9]; 24 hours): 10.4 µg/mL (≈ 19.9 µM)
10 | 12.3 µg/mL (≈ 19.9 µM) | 12.3 µg/mL (≈ 19.9 µM) | 12.3 µg/mL (≈ 19.9 µM) | 12.3 µg/mL (≈ 19.9 µM) |  |  |  |  |  | COc1nc2ccc(Br)cc2cc1C(c1ccccc1)C(O)(CCN(C)C)C1CCN(C(=O)c2ccccc2)CC1 (stereo not drawn) [Compound 201] | 
11 | 13.3 µg/mL (≈ 24.9 µM) | 13.3 µg/mL (≈ 24.9 µM) |  |  | 0.7 µg/mL (≈ 1.31 µM) |  |  |  |  | CCN(CC)CCC(O)(c1ccccc1)C(c1ccccc1)c1cc2cc(Br)ccc2nc1OC (stereo not drawn) [Compound 18] | 
12 |  |  |  |  | 5.6 µg/mL (≈ 9.99 µM) |  |  | 25.0 µg/mL (≈ 44.6 µM) | 25.0 µg/mL (≈ 44.6 µM) | COc1nc2ccc(Br)cc2cc1C(c1ccccc1)C(O)(CCN1CCN(C)CC1)c1ccccc1 (racemic) [Compound 51] | IC90 (μg/ml) BSU 43639 [7]: 28.1 µg/mL (≈ 50.1 µM)

Row | SMILES | IC90 [1] | IC90 [2] | IC90 [3] | IC90 [7] | IC90 (μg/ml) SPN 6305 [5] | IC90 [8] | IC90 [4] | IC90 (μg/ml) EFA 29212 [1] | IC90 (μg/ml) LMO 49594 [2] | other results
13 | COc1nc2ccc(Br)cc2cc1C(c1ccccc1)C(O)(CCN1CCN(C)CC1)c1ccc2ccccc2c1 (racemic) [Compound 136] |  |  |  |  |  |  |  | 10.6 µg/mL (≈ 17.4 µM) | 10.6 µg/mL (≈ 17.4 µM) | IC90 (μg/ml) BSU 43639 [7]: 10.6 µg/mL (≈ 17.4 µM)
